For one molecule, Ki results are on record in patent US7482468B2, “Imidazole and benzimidazole derivatives useful as histamine H3 antagonists” (Schering Corporation, priority 2005, dated 2009).

The target in the experiment is H3 receptors (Cavia porcellus, UniProt Q9JI35). Description: biochemical. The protocol:
General Procedure for H3-Receptor Binding Assay
The source of the H3 receptors in this experiment was guinea pig brain. The animals weighed 400-600 g. The brain tissue was homogenized with a solution of 50 mM Tris, pH 7.5. The final concentration of tissue in the homogenization buffer was 10% w/v. The homogenates were centrifuged at 1,000×g for 10 min. in order to remove clumps of tissue and debris. The resulting supernatants were then centrifuged at 50,000×g for 20 min. in order to sediment the membranes, which were next washed three times in homogenization buffer (50,000×g for 20 min. each). The membranes were frozen and stored at −70° C. until needed.
All compounds to be tested were dissolved in DMSO and then diluted into the binding buffer (50 mM Tris, pH 7.5) such that the final concentration was 2 μg/ml with 0.1% DMSO. Membranes were then added (400 μg of protein) to the reaction tubes. The reaction was started by the addition of 3 nM [^3H]R-α-methyl histamine (8.8 Ci/mmol) or 3 nM [^3H]N^α-methyl histamine (80 Ci/mmol) and continued under incubation at 30° C. for 30 min. Bound ligand was separated from unbound ligand by filtration, and the amount of radioactive ligand bound to the membranes was quantitated by liquid scintillation spectrometry.

One may read the pKi as the Ki on a negative log10 scale, so that one unit is a factor of ten. A high value points to a small Ki.

pKi: −log10 of the molar value.

Sequence of H3 receptors (Q9JI35 whole entry): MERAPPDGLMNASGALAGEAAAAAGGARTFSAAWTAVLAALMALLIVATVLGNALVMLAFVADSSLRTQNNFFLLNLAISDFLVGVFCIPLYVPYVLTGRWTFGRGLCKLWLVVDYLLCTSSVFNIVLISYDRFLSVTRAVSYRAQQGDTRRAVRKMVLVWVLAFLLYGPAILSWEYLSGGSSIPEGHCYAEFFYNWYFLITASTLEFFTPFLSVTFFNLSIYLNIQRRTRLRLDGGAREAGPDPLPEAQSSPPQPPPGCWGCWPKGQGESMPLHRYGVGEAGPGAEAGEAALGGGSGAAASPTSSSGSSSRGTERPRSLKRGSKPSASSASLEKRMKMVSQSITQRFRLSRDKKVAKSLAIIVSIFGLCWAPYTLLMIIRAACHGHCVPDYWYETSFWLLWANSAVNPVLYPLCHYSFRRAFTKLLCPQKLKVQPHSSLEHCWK

In the case of `Fc1ccc2c(c1)nc(-c1ccccn1)n2-c1ccc(OCCCN2CCCCC2)cc1` [Example 1EE], the pKi is 9.00.
